Laboratory results as given in US20120245505A1, “INTRACAMERAL DEVICES FOR SUSTAINED DELIVERY” (priority 2009, published 2012).

How the values were obtained:
iris = details: topical latanoprost (XALATAN); cited from earlier work
[1] = Release of NaF from implanted intracameral device, HRA imaging; format: in vivo, New Zealand white (NZW) rabbit; details: rabbit eye
Procedure: FIGS. 11A-D illustrate a series of Heidelberg retina angiograph (HRA) images of diffusion from an implanted device. FIGS. 11A-D illustrate HRA images after 2 minutes, 5 minutes, 10 minutes and 20 minutes.
A device in accordance with the present disclosure was loaded with sodium fluorescein (NaF) in a polymeric delivery implant. A New Zealand white (NZW) rabbit had this device implanted in the sub-Tenon's space with the inner port extending into the anterior chamber.
FIG. 11 illustrates that in as little as 2 minutes after implantation, the NaF had begun to disperse into the anterior chamber. By 20 minutes, the NaF had substantially dispersed into most of the anterior chamber.

glaucoma = test: Treatment of glaucoma with bimatoprost-coated intracameral implant; format: in vivo, human; details: person, intracameral implant coated with sustained release formulation, after 2 weeks
Description: They have previously received topical therapy, but to no avail. Their vision is worsening as time progresses. […] After 2 weeks, the IOP is reduced.

[2] = system: age-related macular degeneration; test: Treatment of macular degeneration with bimatoprost-coated intracameral implant; format: in vivo, human; details: person, end of 7-year follow up
Description: A person has age-related macular degeneration and cataracts in both eyes. […] At the end of a 7-year follow up period the patient can have maintained vision in the both eyes of at least 20/32

Structure (SMILES): CC(C)OC(=O)CCC/C=C\C[C@@H]1[C@@H](CC[C@@H](O)CCc2ccccc2)[C@H](O)C[C@@H]1O [latanoprost]
- increase in brown pigment in the iris (iris): 5-15 % of human eyes

Structure (SMILES): O=C([O-])c1ccccc1-c1c2ccc(=O)cc-2oc2cc([O-])ccc12.[Na+].[Na+] [NaF, sodium fluorescein]
- time after implantation at which NaF had begun to disperse into the anterior chamber ([1]; FIG. 11, HRA images): ≤ 2 min
- time by which NaF had substantially dispersed into most of the anterior chamber ([1]; FIG. 11, HRA images): ≤ 20 min
- release of NaF into the anterior chamber (HRA imaging) ([1]; device with polymeric delivery implant in sub-Tenon's space, inner port extending into anterior chamber): sustained-release of NaF into the anterior chamber

Structure (SMILES): CCNC(=O)CCC/C=C\C[C@@H]1[C@@H](/C=C/[C@@H](O)CCc2ccccc2)[C@H](O)C[C@@H]1O [bimatoprost]
- IOP (glaucoma): reduced
- maintained vision in both eyes [2]: at least 20/32
